Experimental data from patent US20240245711A1, “A 19-NOR C3,3-DISUBSTITUTED C21-N-PYRAZOLYL STEROID FOR THE TREATMENT OF MAJOR DEPRESSIVE DISORDER” (Sage Therapeutics, Inc., priority 2021, published 2024).
Several values for one entry are separate records, joined by “and”; a condition that tells them apart may be missing. Equal entries are not always repeated.

Test system: adult subjects with Major Depressive Disorder
Experiment: Phase 3 open-label 1-year study: need for re-treatment (number of and time to re-treatments)
Assay type: in vivo, human
From the text: Secondary Objective: To assess the need for re-treatment with Compound (1) following initial treatment in adults with MDD currently experiencing an MDE over a 1-year period, and to assess the response of initial treatment and re-treatment(s) with Compound (1) following an initial 2-week treatment period in adults with MDD currently experiencing an MDE over a 1-year period.
Secondary Endpoints: The need for re-treatment with Compound (1) as assessed by: time to first re-treatment (Kaplan-Meier curves), number of subjects achieving the requirements for re-treatment, number of re-treatment cycles for each subject, the response of initial treatment and/or re-treatment as assessed by: change from baseline in the 17-item Hamilton Rating Scale for Depression (HAM-D) total score at the end of each 14-day treatment (initial and/or re-treatment) period, HAM-D response at the end of each 14-day treatment (initial and/or re-treatment) period, defined as a ≥50% reduction in HAM-D score from baseline, HAM-D remission at the end of each 14-day treatment (initial and/or re-treatment) period, defined as HAM-D total score≤7, Clinical Global Impression-Improvement (CGI-I) response, defined as “much improved” or “very much improved”, at the end of each 14-day treatment (initial and/or re-treatment) period, change from baseline in Clinical Global Impression-Severity (CGI-S) score at the end of each 14-day treatment (initial and/or re-treatment) period.
Subjects who continued in the Observation Period were monitored remotely via PHQ-9 assessment every two weeks. If PHQ-9 score was >=10 at any assessment, PHQ-9 assessment was switch to every week until the score came down below 10 or the subject was dosed with Compound (1) in a subsequent cycle, whichever was earlier. A subject was to come back to the site for HAM-D assessment within a week of PHQ-9 score >=10; if the HAM-D total score >=20 and at least 56 days had elapsed since the last dose of Compound (1), another dosing cycle of Compound (1) were to start. If any of these criteria were not met, the subject couldn't be treated with Compound (1) at that time. Without the trigger of PHQ-9>=10 the subject was to have a clinic visit every 8 weeks. A subject could have at most 5 cycles of treatment within a year. FIG. 2 is a depiction of the eligibility criteria of the study.
The cohorts pertaining to the different doses that the subjects received were defined as following: • 50 mg cohort: This cohort includes subjects who have initiated treatment with 50 mg and received re-treatment with 50 mg only. • 30 mg cohort: This cohort includes subjects who have initiated treatment with 30 mg regardless of the dose they have received in re-treatments. • Low dose cohort: This cohort includes subjects who have initiated treatment with 30 mg and received re-treatment with 30 mg only. • Dose switch cohort: This cohort includes subjects who have received initial treatment with 30 mg and at least one subsequent re-treatment with 50 mg. • Study Period X: starts on the date of the first dose of Compound (1) in cycle X and goes up to one day prior to the first dose of the next cycle. In some embodiments, X is any number from 1 to 5. • Treatment Period X: starts on the date of the first dose of Compound (1) in cycle X and goes up to one day after the last dose in cycle X. In some embodiments, X is any number from 1 to 5. • Treatment Cycle X: starts on the date of the first dose of Compound (1) in cycle X and goes up to 14 days after the last dose in cycle X. The treatment cycles may be denoted as C1-C5. • Observation period X: starts the day after Treatment Cycle X ends and goes up to one day prior to the start of next treatment cycle. In some embodiments, X is any number from 1 to 5.
Analysis Sets: The safety set was defined as all subjects who were administered study drug. The period-specific safety set includes subjects in the safety set who were administered study drug in the corresponding treatment cycle. […]

[1] = 50 mg Cohort (N = 146), Examples 2-3 cut-off
[2] = 50 mg Cohort FAS (146), one-year follow-up (Example 4)
[3] = 50 mg Cohort, Examples 2-3 cut-off
[4] = Cycle 3, 50 mg Cohort (FAS), 1 subject

With `C[C@@]1(O)CC[C@H]2[C@H](CC[C@@H]3[C@@H]2CC[C@]2(C)[C@@H](C(=O)Cn4cc(C#N)cn4)CC[C@@H]32)C1` [Compound (1), 1-(2-((3R,5R,8R,9R,10S,13S,14S,17S)-3-hydroxy-3,13-dimethylhexadecahydro-1H-cyclopenta[a]phenanthren-17-yl)-2-oxoethyl)-1H-pyrazole-4-carbonitrile] the “Average (range) number of re-treatments per subject over 1-year follow-up” value (30 mg Cohort) was 1.2 (0-4) and 1.2, the “Average total number of treatments per subject” value (30 mg Cohort) was 2.2 and the “Dosed in at least 1 re-treatment cycle, % of eligible” value (30 mg Cohort (472 eligible)) was 279 (59.1%). For the same compound, the “Qualified to be retreated in at least 1 more cycle (HAM-D total score >= 20), % of eligible” value (30 mg Cohort (472 eligible)) was 305 (64.6%), the “FAS Subjects Dosed in C2, n (%) of FAS” value (30 mg Cohort Overall) was 279 (57.1%) and the “FAS Subjects dosed in C3, n (%) of FAS” value (30 mg Cohort Overall) was 154 (31.5%). For the same compound, the “FAS Subjects dosed in C4, n (%) of FAS” value (30 mg Cohort Overall) was 96 (19.6%), the “FAS Subjects dosed in C5, n (%) of FAS” value (30 mg Cohort Overall) was 43 (8.8%) and the “Subjects with No re-treatment (Cycle 1), n (%) of FAS” value (30 mg cohort (N = 489)) was 210 (42.9%). For the same compound, the “Subjects with Only 1 re-treatment (Cycle 2), n (%) of FAS” value (30 mg cohort (N = 489)) was 125 (25.6%), the “Subjects with Only 2 re-treatment (Cycle 3), n (%) of FAS” value (30 mg cohort (N = 489)) was 58 (11.9%) and the “Subjects with Only 3 re-treatment (Cycle 4), n (%) of FAS” value (30 mg cohort (N = 489)) was 53 (10.8%). The “Subjects with Only 4 re-treatment (Cycle 5), n (%) of FAS” value (30 mg cohort (N = 489)) was 43 (8.8%) and 43 8.8%), the “Dosed in at least 1 re-treatment cycle, % of eligible” value (50 mg Cohort (122 eligible)) was 26 (21.3%) and the “Qualified to be retreated in at least 1 more cycle (HAM-D total score >= 20), % of eligible” value (50 mg Cohort (122 eligible)) was 36 (29.5%). The “Subjects with No re-treatment (Cycle 1), n (%) of FAS” value [1] was 120 (82.2%), the “Subjects with Only 1 re-treatment (Cycle 2), n (%) of FAS” value [1] was 25 (17.1%) and the “Subjects with Only 2 re-treatment (Cycle 3), n (%) of FAS” value [1] was 1 (0.7%). The “Subjects who received 1 treatment course in total” value [2] was 54.8%, the “Subjects who received 2 treatment courses in total” value [2] was 24.7% and the “Subjects who received 3 treatment courses in total” value [2] was 10.3%. For the same compound, the “Subjects who received 4 treatment courses in total” value [2] was 6.8%, the “Subjects who received 5 treatment courses in total” value [2] was 3.4% and the “Subjects who received at most one additional treatment cycle” value [2] was 79.5%. For the same compound, the “FAS Subjects Dosed in C2, n (%) of FAS” value [3] was 26 (17.8%), the “FAS Subjects dosed in C3, n (%) of FAS” value [3] was 1 (0.7%) and the “Proportion with zero or at most 1 additional treatment cycle, by use of antidepressant therapy at baseline” value (50 mg Cohort, one-year follow-up (Example 4)) was “similar”. For the same compound, the “n/N: FAS subjects eligible and dosed in Cycle X / eligible for dosing in Cycle X” value (Cycle 2, 50 mg Cohort) was 26/122, the “Time to re-treatment since last dose in previous cycle, Mean (SD)” value (from here on “Time to re-treatment since last dose … (SD)”) (Cycle 2, 50 mg Cohort (FAS)) was 70.5 (18.52) Days and the “Time to re-treatment since last dose in previous cycle, Median” value (from here on “Time … Median”) (Cycle 2, 50 mg Cohort (FAS)) was 62.5 days. The “Time to re-treatment since last dose in previous cycle, Min - Max” value (from here on “Time to re-treatment since last dose … - Max”) (Cycle 2, 50 mg Cohort (FAS)) was 58 to 122 days, the “n/N: FAS subjects eligible and dosed in Cycle X / eligible for dosing in Cycle X” value (Cycle 2, Dose Switch) was 80/80 and the “Time to re-treatment since last dose … (SD)” value (Cycle 2, Dose Switch (FAS)) was 116.5 (70.26) Days. For the same compound, the “Time … Median” value (Cycle 2, Dose Switch (FAS)) was 91 days, the “Time to re-treatment since last dose … - Max” value (Cycle 2, Dose Switch (FAS)) was 58 to 318 days and the “n/N: FAS subjects eligible and dosed in Cycle X / eligible for dosing in Cycle X” value (Cycle 2, Low Dose) was 199/392. For the same compound, the “Time to re-treatment since last dose … (SD)” value (Cycle 2, Low Dose (FAS)) was 99.5 (52.15) Days, the “Time … Median” value (Cycle 2, Low Dose (FAS)) was 78 days and the “Time to re-treatment since last dose … - Max” value (Cycle 2, Low Dose (FAS)) was 58 to 297 days. The “n/N: FAS subjects eligible and dosed in Cycle X / eligible for dosing in Cycle X” value (Cycle 3, 50 mg Cohort) was 1/4, the “Time to re-treatment since last dose … (SD)” value [4] was 58 (NA) Days and 58.0 (NA), 58.0, Days and the “Time … Median” value [4] was 58 Days and 58.0 (NA), 58.0, Days. For the same compound, the “Time to re-treatment since last dose … - Max” value [4] was 58-58 Days, the “n/N: FAS subjects eligible and dosed in Cycle X / eligible for dosing in Cycle X” value (Cycle 3, Dose Switch) was 71/76 and the “Time to re-treatment since last dose … (SD)” value (Cycle 3, Dose Switch (FAS)) was 92.5 (34.44) Days. The “Time … Median” value (Cycle 3, Dose Switch (FAS)) was 79 days, the “Time to re-treatment since last dose … - Max” value (Cycle 3, Dose Switch (FAS)) was 58 to 214 days and the “n/N: FAS subjects eligible and dosed in Cycle X / eligible for dosing in Cycle X” value (Cycle 3, Low Dose) was 83/166. For the same compound, the “Time to re-treatment since last dose … (SD)” value (Cycle 3, Low Dose (FAS)) was 87.2 (34.97) Days, the “Time … Median” value (Cycle 3, Low Dose (FAS)) was 72 days and the “Time to re-treatment since last dose … - Max” value (Cycle 3, Low Dose (FAS)) was 52 to 217 days. For the same compound, the “n/N: FAS subjects eligible and dosed in Cycle X / eligible for dosing in Cycle X” value (Cycle 4, Dose Switch) was 53/63, the “Time to re-treatment since last dose … (SD)” value (Cycle 4, Dose Switch (FAS)) was 69.9 (13.40) Days and the “Time … Median” value (Cycle 4, Dose Switch (FAS)) was 66 days. The “Time to re-treatment since last dose … - Max” value (Cycle 4, Dose Switch (FAS)) was 57 to 120 days, the “n/N: FAS subjects eligible and dosed in Cycle X / eligible for dosing in Cycle X” value (Cycle 4, Low Dose) was 43/74 and the “Time to re-treatment since last dose … (SD)” value (Cycle 4, Low Dose (FAS)) was 72.1 (17.67) Days. For the same compound, the “Time … Median” value (Cycle 4, Low Dose (FAS)) was 65 days, the “Time to re-treatment since last dose … - Max” value (Cycle 4, Low Dose (FAS)) was 57 to 113 days and the “n/N: FAS subjects eligible and dosed in Cycle X / eligible for dosing in Cycle X” value (Cycle 5, Dose Switch) was 23/45. The “Time to re-treatment since last dose … (SD)” value (Cycle 5, Dose Switch (FAS)) was 61.4 (6.24) Days.
